# Patent publication EP4818330A1, “PHARMACEUTICAL PREPARATION FOR DIAGNOSING AND TREATING ALZHEIMER'S DISEASE” (Shanghai East Hospital Tongji University, priority 2023, dated 2025)
# Several values for one entry are separate records, joined by “and”; a condition that tells them apart may be missing. Equal values may be shown once. Read-outs that look alike come from different tables or passages of the source.
# Key:
# APP/PS1 transgenic mice = assay: Morris water maze in APP/PS1 x Thy1-GFP mice; type: in vivo
# Description: Thy1-GFP mice are commonly used in neuroscience research. The fluorescence labeling of GFP facilitates convenient observation and tracking of specific cell types, especially neurons. APP/PS1 transgenic mice (an animal model of Alzheimer's disease) were crossed with Thy1-GFP mice. The crossed mice aged 5 months were intraperitoneally injected with a compound solution at a concentration of 2.5 mg/kg for 1 month continuously. Subsequently, the crossed mice aged 6 months were subjected to behavioral test (Morris water maze MWM experiment) to evaluate learning and memory abilities (as shown in FIG. 22).
# Water maze: A water maze experimental apparatus is circular stainless steel with a diameter of 100 cm and a height of 50 cm, wherein a pool is equally divided into 4 quadrants according to the 4 orientations of east, south, west and north, a circular black hidden platform with a diameter of 9 cm and a height of 27 cm is placed in the center of the target quadrant. […] The movement trajectory of the mouse was synchronously recorded by the camera directly above the water pool, and analyzed by the EthovisionXT monitoring and analysis system. […] The mouse swam in the water for 60 s, and the percentage of time the mouse spent in the target platform quadrant was recorded, representing the learning and memory ability of the mouse.
# [1] = Drug content in brain tissue after single intraperitoneal administration; type: in vivo, Balb/c strain mice; details: mice; for concentration at 0.5 h: brain, ip
# Description: (§1) Research method: first, Balb/c strain mice were administered with a single intraperitoneal injection at a concentration of 2.5 mg/kg, and the content of the compound in serum was detected at 0.25, 0.5, 1, 2, 4, 6, 8 and 24 h after injection; second, brain tissues of mice at 0.5, 4 and 24 h after injection were collected to detect the compound content, so as to evaluate the blood-brain barrier penetration rate.
# primary neurons = assay: Dendritic spine density of neurons in the in vitro AD model (APPsw lentivirus); type: cell-based, mouse
# Description: The extraction and culture of primary neurons were the same as those hereinabove (toxicity experiment section). Transfection of neurons using plasmid calcium: A neuron culture medium (half medium change) was aspirated and placed in a 37°C water bath for later use, and Neurobasel A was added to a 24-well plate. 500 ng of plasmid DNA was dissolved in 12.5 µl of CaCl2 solution, and then centrifuged. 12.5 µl of HBS was added to the EP tube, and then centrifuged. The mixed solution hereinabove was added to the 24-well plate. The 24-well plate was gently shaken, and then placed back into a 37°C incubator to stand for 90 min. […] On day 6 of in vitro culture (DIV6), the original medium was semi-quantitatively collected, and the lentivirus stock solution (100 µl) was diluted with the original medium (10 ml) at a ratio of […]. […] Primary neurons were transfected with calcium-transformed GFP plasmids on day 4 of in vitro culture to enable the neurons to carry green fluorescence for observing neuronal dendrites. […] After 14 days of in vitro culture, the neurons were fixed with 4% PFA, photographed under a 100× oil immersion lens of a confocal fluorescence microscope, and the dendritic spine density per 10 µm length of the neurons was calculated by observing GFP green fluorescence.
# [2] = Blood drug concentration in mice after single intraperitoneal administration; type: in vivo, Balb/c strain mice
# Description: Compound preparation: A compound of Formula I was commercially available, which was dissolved and diluted with a solution comprising 10% DMSO+90% (20% HP-β-CD).
# as §1
# [3] = IP 2.5 mg/kg, 0.5 hr, individual animals, 2.5 mg/kg
# [4] = IP 2.5 mg/kg, 24 hr, individual animals
# [5] = IP 2.5 mg/kg, 24 hr, mean of 3 animals
smiles,measurement,setting,value
"CCOC(=O)c1[nH]c(C)c(CCC(=O)N2CCCC(C(=O)NCCN3CCCCCC3)C2)c1C (centres unmarked) [compound of Formula I, ETHYL4-[3-(3-{[2-(AZEPAN-1-YL)ETHYL]CARBAMOYL}PIPERIDIN-1-YL)-3-OXOPROPYL]-3, 5-DIMETHYL-1H-PYRROLE-2-CARBOXYLATE]",time percentage in the platform quadrant,"APP/PS1 transgenic mice; APP/PS1+ intervention, IP 2.5 mg/kg for 1 month, day 7 spatial exploration, individual animals, 2.5 mg/kg",12.17% and 26.78% and 27.89% and 19.335% and 31.945% and 22% and 29.11%
same,time percentage of mice in the platform quadrant,APP/PS1 transgenic mice; after compound intervention vs APP/PS1 mice,increased
same,concentration at 0.5 h,"[1]; Balb/c, mouse, 2.5 mg/kg, IP 2.5 mg/kg, 0.5 hr, individual animals, read-out: Concentration (brain tissue)",16.8 ng/mL
same,concentration at 0.5 h,"[1]; Balb/c, mouse, 2.5 mg/kg, IP 2.5 mg/kg, 0.5 hr, mean of 3 animals, read-out: Concentration (brain tissue) Mean",13.8 ng/mL
same,Kp at 0.5 h,"[1]; Balb/c, mouse, IP 2.5 mg/kg, 0.5 hr, brain tissue vs blood",0.037
same,Concentration (brain tissue),[1]; [3],10.3 ng/mL and 14.4 ng/mL
same,Concentration (brain tissue),"[1]; IP 2.5 mg/kg, 4 hr, individual animals","BLOQ (BLOQ = Below LOQ, LOQ = 2.0 ng/mL)"
same,Concentration (brain tissue) Mean,"[1]; IP 2.5 mg/kg, 4 hr, mean of 3 animals","BLOQ (BLOQ = Below LOQ, LOQ = 2.0 ng/mL)"
same,Concentration (brain tissue),[1]; [4],"BLOQ (BLOQ = Below LOQ, LOQ = 2.0 ng/mL)"
same,Concentration (brain tissue) Mean,[1]; [5],"BLOQ (BLOQ = Below LOQ, LOQ = 2.0 ng/mL)"
same,blood-brain barrier penetration,[1]; brain tissue 0.5 h after single IP injection 2.5 mg/kg,capable of crossing the blood-brain barrier
same,number of dendritic spines of neurons (normalized to the control group),"primary neurons; APP SW+intervention, compound 2.5 µmol for 24 h, individual neurons",0.7841 and 0.7357 and 0.6856 and 0.8651 and 0.6806 and 0.6909 and 0.6481 and 0.7086
same,dendritic spine density,"primary neurons; in vitro AD model (APPsw virus), after compound intervention, group comparison",increased
same,concentration at 0.25 h,"[2]; Balb/c, mouse, serum, ip, 2.5 mg/kg, IP 2.5 mg/kg, 0.25 hr, individual animals, read-out: Concentration (blood)",369 ng/mL
same,concentration at 0.25 h,"[2]; Balb/c, mouse, serum, ip, 2.5 mg/kg, IP 2.5 mg/kg, 0.25 hr, mean of 3 animals, read-out: Concentration (blood) Mean",423 ng/mL
same,concentration at 0.5 h,"[2]; Balb/c, mouse, serum, ip, 2.5 mg/kg, IP 2.5 mg/kg, 0.5 hr, individual animals, read-out: Concentration (blood)",364 ng/mL
same,concentration at 0.5 h,"[2]; Balb/c, mouse, serum, ip, 2.5 mg/kg, IP 2.5 mg/kg, 0.5 hr, mean of 3 animals, read-out: Concentration (blood) Mean",374 ng/mL
same,concentration at 1 h,"[2]; Balb/c, mouse, serum, ip, 2.5 mg/kg, IP 2.5 mg/kg, 1 hr, mean of 3 animals",145 ng/mL
same,concentration at 2 h,"[2]; Balb/c, mouse, serum, ip, 2.5 mg/kg, IP 2.5 mg/kg, 2 hr, mean of 3 animals",36.1 ng/mL
same,concentration at 4 h,"[2]; Balb/c, mouse, serum, ip, 2.5 mg/kg, IP 2.5 mg/kg, 4 hr, mean of 3 animals",5.14 ng/mL
same,Concentration (blood),"[2]; IP 2.5 mg/kg, 0.25 hr, individual animals, 2.5 mg/kg",350 ng/mL and 551 ng/mL
same,Concentration (blood),[2]; [3],328 ng/mL and 431 ng/mL
same,Concentration (blood),"[2]; IP 2.5 mg/kg, 1 hr, individual animals, 2.5 mg/kg",118 ng/mL and 217 ng/mL and 99.3 ng/mL
same,Concentration (blood),"[2]; IP 2.5 mg/kg, 2 hr, individual animals, 2.5 mg/kg",22.7 ng/mL and 63.7 ng/mL and 22.0 ng/mL
same,Concentration (blood),"[2]; IP 2.5 mg/kg, 4 hr, individual animals, 2.5 mg/kg",3.63 ng/mL and 8.64 ng/mL and 3.15 ng/mL
same,Concentration (blood),"[2]; IP 2.5 mg/kg, 6 hr, individual animals","BLOQ (BLOQ = Below LOQ, LOQ = 2.0 ng/mL)"
same,Concentration (blood) Mean,"[2]; IP 2.5 mg/kg, 6 hr, mean of 3 animals","BLOQ (BLOQ = Below LOQ, LOQ = 2.0 ng/mL)"
same,Concentration (blood),"[2]; IP 2.5 mg/kg, 8 hr, individual animals","BLOQ (BLOQ = Below LOQ, LOQ = 2.0 ng/mL)"
same,Concentration (blood) Mean,"[2]; IP 2.5 mg/kg, 8 hr, mean of 3 animals","BLOQ (BLOQ = Below LOQ, LOQ = 2.0 ng/mL)"
same,Concentration (blood),[2]; [4],"BLOQ (BLOQ = Below LOQ, LOQ = 2.0 ng/mL)"
same,Concentration (blood) Mean,[2]; [5],"BLOQ (BLOQ = Below LOQ, LOQ = 2.0 ng/mL)"
same,blood concentration of the compound,"[2]; single IP injection 2.5 mg/kg, after 6 h",undetectable
